Test: HILIC, Merck SeQuant ZIC-pHILIC, 150 × 2.1 mm, 5 µm, 0.1 mL/min, estimated dead time 3.3 min; A: acetonitrile; B: water + 10 mM ammonium carbonate; gradient (min/%B) 0/20 30/80
Conditions: stereoisomer not certain

With `OCC1OCC(O)C(O)C1O` (stereo not given) [1,5-Anhydroglucitol] the LC retention time was 9.2 min.
With `Cn1cnc2c(ncn2C2OC(CO)C(O)C2O)c1=N` (stereo not given) [1-Methyl-adenosine] the LC retention time was 11.1 min.
`Cn1c(N)nc2c(ncn2C2OC(CO)C(O)C2O)c1=O` (stereo not given) [1-Methyl-guanosine] showed an LC retention time of 7.1 min.
With `NC(CCCC(=O)O)C(=O)O` (stereo not given) [2-Aminoadipate] the LC retention time was 12.2 min.
`O=C(O)CCC(=O)C(=O)O` [2-Oxoglutarate] showed an LC retention time of 12.9 min.
`Nc1ncnc2c1ncn2C1OC2COP(=O)(O)OC2C1O` (stereo not given) [3',5'-cAMP] gave an LC retention time of 7.1 min.
In the case of `Nc1ccc(C(=O)O)cc1` [4-Aminobenzoate], the LC retention time is reported as 7.2 min.
Compound `O=C(O)C(O)C(O)C(O)C(O)COP(=O)(O)O` (stereo not given) [6-Phosphogluconate] has an LC retention time of 15 min.
With `Nc1ncnc2c1ncn2C1OC(COP(=O)(O)OP(=O)(O)O)C(O)C1O` (stereo not given) [ADP] the LC retention time was 12.4 min.
For `NC(=O)c1ncn(C2OC(COP(=O)(O)O)C(O)C2O)c1N` (stereo not given) [AICAR], the LC retention time was 12.7 min.
With `Nc1ncnc2c1ncn2C1OC(COP(=O)(O)O)C(O)C1O` (stereo not given) [AMP] the LC retention time was 11.5 min.
With `Nc1ncnc2c1ncn2C1OC(COP(=O)(O)OP(=O)(O)OP(=O)(O)O)C(O)C1O` (stereo not given) [ATP] the LC retention time was 13.8 min.
With `CC(=O)SCCNC(=O)CCNC(=O)C(O)C(C)(C)COP(=O)(O)OP(=O)(O)OCC1OC(n2cnc3c(N)ncnc32)C(O)C1OP(=O)(O)O` (stereo not given) [Acetyl-CoA] the LC retention time was 10.5 min.
`CC(=O)OC(CC(=O)[O-])C[N+](C)(C)C` (stereo not given) [Acetyl-carnitine] gave an LC retention time of 8.5 min.
`Nc1ncnc2nc[nH]c12` [Adenine] gave an LC retention time of 6.6 min.
With `Nc1ncnc2c1ncn2C1OC(CO)C(O)C1O` (stereo not given) [Adenosine] the LC retention time was 6.2 min.
For `NC(N)=NCCCC(N)C(=O)O` (stereo not given) [Arginine], the LC retention time was 24.8 min.
For `NC(=NCCCC(N)C(=O)O)NC(CC(=O)O)C(=O)O` (stereo not given) [Arginino-succinate], the LC retention time was 14.2 min.
For `NC(=O)CC(N)C(=O)O` (stereo not given) [Asparagine], the LC retention time was 12.4 min.
Work on `NC(CC(=O)O)C(=O)O` (stereo not given) [Aspartate] yielded an LC retention time of 12.5 min.
`C[N+](C)(C)CC(=O)[O-]` [Betaine] showed an LC retention time of 8.6 min.
With `O=C(O)CCCCC1SCC2NC(=O)NC21` (stereo not given) [Biotin] the LC retention time was 6.2 min.
For `C[N+](C)(C)CCCC(=O)O` [Butyro-betaine], the LC retention time was 10.9 min.
Work on `CCCC(=O)OC(CC(=O)[O-])C[N+](C)(C)C` (stereo not given) [Butyryl-carnitine] yielded an LC retention time of 6.2 min.
For `C[N+](C)(C)CCOP(=O)(O)OP(=O)([O-])OCC1OC(n2ccc(N)nc2=O)C(O)C1O` (stereo not given) [CDP-choline], the LC retention time was 13 min.
Work on `Nc1ccn(C2OC(COP(=O)(O)OP(=O)(O)O)C(O)C2O)c(=O)n1` (stereo not given) [CDP] yielded an LC retention time of 14.7 min.
Compound `Nc1ccn(C2OC(COP(=O)(O)O)C(O)C2O)c(=O)n1` (stereo not given) [CMP] has an LC retention time of 13.2 min.
Work on `Nc1ccn(C2OC(COP(=O)(O)OP(=O)(O)OP(=O)(O)O)C(O)C2O)c(=O)n1` (stereo not given) [CTP] yielded an LC retention time of 15.5 min.
`C[N+](C)(C)CC(O)CC(=O)[O-]` (stereo not given) [Carnitine] gave an LC retention time of 10.9 min.
With `CC(O)(CC(=O)O)C(=O)O` (stereo not given) [Citramalate] the LC retention time was 12.6 min.
For `O=C(O)CC(O)(CC(=O)O)C(=O)O` [Citrate], the LC retention time was 15.5 min.
In the case of `NC(=O)NCCCC(N)C(=O)O` (stereo not given) [Citrulline], the LC retention time is reported as 13 min.
For `CC(C)(COP(=O)(O)OP(=O)(O)OCC1OC(n2cnc3c(N)ncnc32)C(O)C1OP(=O)(O)O)C(O)C(=O)NCCC(=O)NCCS` (stereo not given) [CoA], the LC retention time was 11.7 min.
Compound `CN(CC(=O)O)C(=N)N` [Creatine] has an LC retention time of 12.1 min.
`CN1CC(=O)NC1=N` [Creatinine] gave an LC retention time of 6.9 min.
Compound `Nc1ccn(C2OC(CO)C(O)C2O)c(=O)n1` (stereo not given) [Cytidine] has an LC retention time of 9.1 min.
`CCCCCCCCCC(=O)OC(CC(=O)[O-])C[N+](C)(C)C` (stereo not given) [Decanoyl-carnitine] showed an LC retention time of 4.2 min.
For `CN(C)C(N)=NCCCC(N)C(=O)O` (stereo not given) [Dimethyl-arginine], the LC retention time was 20 min.
`CN(C)c1nc2c(ncn2C2OC(CO)C(O)C2O)c(=O)[nH]1` (stereo not given) [Dimethyl-guanosine] gave an LC retention time of 6 min.
With `C[NH+](C)C(Cc1cnc[nH]1)C(=O)[O-]` (stereo not given) [Dimethyl-histidine] the LC retention time was 9.7 min.
Work on `CN(C)CCCCC(N)C(=O)O` (stereo not given) [Dimethyl-lysine] yielded an LC retention time of 19.2 min.
Compound `C[N+]1(C)CCCC1C(=O)[O-]` (stereo not given) [Dimethyl-proline (stachydrine)] has an LC retention time of 7.9 min.
For `O=C(O)C(COP(=O)(O)O)OP(=O)(O)O` (stereo not given) [Diphospho-glycerate], the LC retention time was 15.6 min.
With `C[N+](C)(C)C(Cc1cnc([S-])[nH]1)C(=O)O` (stereo not given) [Ergothioneine] the LC retention time was 12.1 min.
`Cc1cc2nc3c(=O)[nH]c(=O)nc-3n(CC(O)C(O)C(O)COP(=O)(O)OP(=O)(O)OCC3OC(n4cnc5c(N)ncnc54)C(O)C3O)c2cc1C` (stereo not given) [FAD] gave an LC retention time of 9.4 min.
For `O=P(O)(O)OCC1OC(O)(COP(=O)(O)O)C(O)C1O` (stereo not given) [Fructose-1,6-diphosphate], the LC retention time was 15.5 min.
Compound `O=P(O)(O)OCC1OC(O)(CO)C(O)C1O` (stereo not given) [Fructose-6-phosphate] has an LC retention time of 13.3 min.
With `O=C(O)C=CC(=O)O` [Fumarate] the LC retention time was 13.1 min.
`Nc1nc2c(ncn2C2OC(COP(=O)(O)OP(=O)(O)OC3OC(CO)C(O)C(O)C3O)C(O)C2O)c(=O)[nH]1` (stereo not given) [GDP-glucose] gave an LC retention time of 15.5 min.
In the case of `Nc1nc2c(ncn2C2OC(COP(=O)(O)OP(=O)(O)O)C(O)C2O)c(=O)[nH]1` (stereo not given) [GDP], the LC retention time is reported as 15.5 min.
Work on `Nc1nc2c(ncn2C2OC(COP(=O)(O)O)C(O)C2O)c(=O)[nH]1` (stereo not given) [GMP] yielded an LC retention time of 14.1 min.
For `Nc1nc2c(ncn2C2OC(COP(=O)(O)OP(=O)(O)OP(=O)(O)O)C(O)C2O)c(=O)[nH]1` (stereo not given) [GTP], the LC retention time was 16.4 min.
`O=C(O)C(O)C(O)C(O)C(O)CO` (stereo not given) [Gluconate] gave an LC retention time of 11.4 min.
`NC1C(O)OC(CO)C(O)C1O` (stereo not given) [Glucosamine] showed an LC retention time of 11.6 min.
In the case of `O=P(O)(O)OCC1OC(O)C(O)C(O)C1O` (stereo not given) [Glucose-6-phosphate], the LC retention time is reported as 14.2 min.
Compound `OCC1OC(O)C(O)C(O)C1O` (stereo not given) [Glucose] has an LC retention time of 12 min.
`COC(=O)C(N)CCC(=O)O` (stereo not given) [Glutamate methyl ester] showed an LC retention time of 7.1 min.
For `NC(CCC(=O)O)C(=O)O` (stereo not given) [Glutamate], the LC retention time was 12.1 min.
Compound `NC(=O)CCC(N)C(=O)O` (stereo not given) [Glutamine] has an LC retention time of 12.2 min.
With `O=C(O)CCCC(=O)O` [Glutarate] the LC retention time was 12 min.
For `NC(CCC(=O)NC(CSSCC(NC(=O)CCC(N)C(=O)O)C(=O)NCC(=O)O)C(=O)NCC(=O)O)C(=O)O` (stereo not given) [Glutathione disulfide (GSSG)], the LC retention time was 15 min.
`O=CC(O)COP(=O)(O)O` (stereo not given) [Glyceraldehyde-3-phosphate] showed an LC retention time of 13.2 min.
Compound `O=C(O)C(O)CO` (stereo not given) [Glyceric acid] has an LC retention time of 10.1 min.
`O=P(O)(O)OC(CO)CO` [Glycerol-2-phosphate] gave an LC retention time of 12.2 min.
For `C[N+](C)(C)CCOP(=O)([O-])OCC(O)CO` (stereo not given) [Glycerophosphocholine], the LC retention time was 12.1 min.
In the case of `Nc1nc2c(ncn2C2OC(CO)C(O)C2O)c(=O)[nH]1` (stereo not given) [Guanosine], the LC retention time is reported as 9.8 min.
`CC(O)(CC(=O)O)CC(=O)SCCNC(=O)CCNC(=O)C(O)C(C)(C)COP(=O)(O)OP(=O)(O)OCC1OC(n2cnc3c(N)ncnc32)C(O)C1OP(=O)(O)O` (stereo not given) [HMG-CoA] showed an LC retention time of 13.2 min.
Compound `CCCCCC(=O)OC(CC(=O)[O-])C[N+](C)(C)C` (stereo not given) [Hexanoyl-carnitine] has an LC retention time of 4.8 min.
Compound `O=C(O)CNC(=O)c1ccccc1` [Hippurate] has an LC retention time of 4.4 min.
For `NCCc1cnc[nH]1` [Histamine], the LC retention time was 24.8 min.
Work on `NC(Cc1cnc[nH]1)C(=O)O` (stereo not given) [Histidine] yielded an LC retention time of 12 min.
For `NC(CO)Cc1cnc[nH]1` (stereo not given) [Histidinol], the LC retention time was 16.3 min.
`O=c1[nH]cnc2nc[nH]c12` [Hypoxanthine] showed an LC retention time of 7.6 min.
For `O=S(=O)(O)Oc1c[nH]c2ccccc12` [Indoxyl-sulfate], the LC retention time was 4.9 min.
Compound `O=c1[nH]cnc2c1ncn2C1OC(CO)C(O)C1O` (stereo not given) [Inosine] has an LC retention time of 8.2 min.
Work on `CCC(C)C(N)C(=O)O` (stereo not given) [Isoleucine] yielded an LC retention time of 8.6 min.
For `CC(C)CC(=O)OC(CC(=O)[O-])C[N+](C)(C)C` (stereo not given) [Isovaleryl-carnitine], the LC retention time was 5.4 min.
For `Nc1ccccc1C(=O)CC(N)C(=O)O` (stereo not given) [Kynurenine], the LC retention time was 8 min.
With `CC(C)CC(N)C(=O)O` (stereo not given) [Leucine] the LC retention time was 7.6 min.
`NCCCCC(N)C(=O)O` (stereo not given) [Lysine] gave an LC retention time of 23.3 min.
Work on `O=C(O)CC(O)C(=O)O` (stereo not given) [Malate] yielded an LC retention time of 13.3 min.
`CSCCC(N)C(=O)O` (stereo not given) [Methionine] showed an LC retention time of 8.7 min.
`Cn1cnc(CC(N)C(=O)O)c1` (stereo not given) [Methyl-histidine] showed an LC retention time of 10.2 min.
`CNCCCCC(N)C(=O)O` (stereo not given) [Methyl-lysine] gave an LC retention time of 22.1 min.
Compound `CC(=O)NC(CCCC[NH3+])C(=O)[O-]` (stereo not given) [N2-Acetyl-lysine] has an LC retention time of 12.7 min.
For `CC(=O)NCCCCC([NH3+])C(=O)[O-]` (stereo not given) [N6-Acetyl-lysine], the LC retention time was 10.5 min.
For `CCC(C)C(NC(C)=O)C(=O)O` (stereo not given) [N-Acetyl-(iso)leucine], the LC retention time was 4.4 min.
`CC(=O)N[C@H]1C(O)O[C@H](CO)[C@@H](O)[C@@H]1O` (stereo partly drawn) [N-Acetyl-D-glucosamine] gave an LC retention time of 9.3 min.
In the case of `CC(=O)NC(CCC[NH+]=C(N)N)C(=O)[O-]` (stereo not given) [N-Acetyl-arginine], the LC retention time is reported as 12.3 min.
`CC(=O)NC(CC(=O)O)C(=O)O` (stereo not given) [N-Acetyl-aspartate] showed an LC retention time of 12.5 min.
In the case of `CC(=O)NC(CCC(=O)O)C(=O)O` (stereo not given) [N-Acetyl-glutamate], the LC retention time is reported as 11.6 min.
In the case of `CC(=O)NC(CCCN)C(=O)O` (stereo not given) [N-Acetyl-ornithine], the LC retention time is reported as 11.1 min.
In the case of `NC(=O)c1ccc[n+](C2OC(COP(=O)(O)OP(=O)(O)OCC3OC(n4cnc5c(N)ncnc54)C(O)C3O)C(O)C2O)c1` (stereo not given) [NAD+], the LC retention time is reported as 11.9 min.
`NC(=O)C1=CN(C2OC(COP(=O)(O)OP(=O)(O)OCC3OC(n4cnc5c(N)ncnc54)C(O)C3O)C(O)C2O)C=CC1` (stereo not given) [NADH] gave an LC retention time of 11.1 min.
Work on `NC(=O)c1ccc[n+](C2OC(COP(=O)(O)OP(=O)(O)OCC3OC(n4cnc5c(N)ncnc54)C(OP(=O)(O)O)C3O)C(O)C2O)c1` (stereo not given) [NADP+] yielded an LC retention time of 14.4 min.
